Data: ChEMBL document CHEMBL1201862, “PubChem BioAssay data set” (2004)
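In this assay, cells in 96-well plates receive the compound at five concentrations for 48 hours. Endpoints are linearly interpolated between the surrounding concentrations. GI50: concentration for 50% inhibition of growth.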 Activity calls are given as the source filed them. Rule as the data show it: active = GI50 up to about 1.1 µM and inactive = higher.

Experiments:
Test in all cases: NCI-60 cell line screen, 48 h
[1] = system: SN12C
[2] = system: UACC-257
[3] = system: HCT-116
[4] = system: SK-OV-3
[5] = system: SF-268
[6] = system: SR
[7] = system: HCT-15
[8] = system: CCRF-CEM
[9] = system: TK-10
[10] = system: OVCAR-4
[11] = system: DMS-114
[12] = system: CAKI-1
[13] = system: NCI-H460
[14] = system: UO-31
[15] = system: HL-60
[16] = system: SK-MEL-28
[17] = system: MDA-MB-435
[18] = system: PC-3
[19] = system: Hs-578T
[20] = system: T47D

Row | Compound | GI50 [1] | GI50 [2] | GI50 [3] | GI50 [4] | GI50 [5] | GI50 [6] | GI50 [7] | GI50 [8] | GI50 [9] | GI50 [10] | GI50 [11] | GI50 [12] | GI50 [13] | GI50 [14] | GI50 [15] | GI50 [16] | GI50 [17] | GI50 [18] | GI50 [19] | GI50 [20]
1 | COc1ccc(OC)c(NC(=O)CCC/C(CC(=O)c2ccc(O)c(OC)c2)=N\Nc2ccc([N+](=O)[O-])cc2)c1 | > 100 µM (inactive) | > 100 µM (inactive) | > 100 µM (inactive) | 39 µM (inactive) | > 100 µM (inactive) | > 100 µM (inactive) | > 100 µM | 68.2 µM (inactive) | 50.2 µM (inactive) | > 100 µM (inactive) | > 100 µM (inactive) | > 100 µM (inactive) | > 100 µM (inactive) | 83 µM (inactive) | > 100 µM (inactive) |  |  |  |  | 
2 | O=C(C(=O)N1CC2C=CC1CC2)c1c[nH]c2ccccc12 (stereo not given) | > 100 µM (inactive) | > 100 µM (inactive) | > 100 µM (inactive) | > 100 µM (inactive) | > 100 µM (inactive) | > 100 µM (inactive) | > 100 µM | > 100 µM (inactive) | > 100 µM (inactive) | > 100 µM (inactive) | > 100 µM (inactive) | > 100 µM (inactive) | > 100 µM (inactive) | > 100 µM (inactive) | > 100 µM (inactive) |  |  |  |  | 
3 | CC(=O)NC(CCCCNC(=O)NCCCl)C(=O)NCc1ccccc1 (stereo not given) | > 100 µM (inactive) | > 100 µM (inactive) | > 100 µM (inactive) |  | > 100 µM (inactive) | > 100 µM (inactive) | > 100 µM | > 100 µM (inactive) | > 100 µM (inactive) | > 100 µM (inactive) | > 100 µM (inactive) | > 100 µM (inactive) | > 100 µM (inactive) | > 100 µM (inactive) | > 100 µM (inactive) | > 100 µM (inactive) |  |  |  | 
4 | O=C1O/C(=C(\Br)c2cccc3ccccc23)c2ccccc21 | 21.3 µM (inactive) | > 40.9 µM (inactive) | 31.4 µM (inactive) | > 39.8 µM (inactive) | > 37.5 µM (inactive) | 19.7 µM (inactive) | 31.3 µM | 20 µM (inactive) | 30.4 µM (inactive) | 16.5 µM (inactive) | > 33.3 µM (inactive) |  | > 53.6 µM (inactive) | > 41.3 µM (inactive) | 19.5 µM (inactive) | > 35.1 µM (inactive) |  |  |  | 
5 | Cc1ccc2nc(NC(=O)C(=O)C(C(=O)c3ccc4ccccc4c3)C3OC(=O)c4ccccc43)sc2c1 (stereo not given) | 13.5 µM (inactive) | 13.1 µM (inactive) | 5.6 µM (inactive) | 29.9 µM (inactive) | 8.3 µM (inactive) | 3.33 µM (inactive) | > 10 µM |  |  | 22.7 µM (inactive) | 8.22 µM (inactive) | 12.2 µM (inactive) | 4.43 µM (inactive) | 14.6 µM (inactive) |  | 5.21 µM (inactive) |  |  |  | 
6 | COc1ccc(-c2cc(=O)c3ccccc3[nH]2)c(OC)c1 | > 100 µM (inactive) | > 100 µM (inactive) | > 100 µM (inactive) | > 100 µM (inactive) | > 100 µM (inactive) | > 100 µM (inactive) | > 100 µM | > 100 µM (inactive) | > 100 µM (inactive) |  | > 100 µM (inactive) |  | > 100 µM (inactive) | > 100 µM (inactive) | 73.6 µM (inactive) | > 100 µM (inactive) |  |  |  | 
7 | CC(=O)O[C@H]1CC[C@@]2(C)C(=CC[C@@H]3C2CC[C@]2(C)Nc4[nH]ncc4CC32)C1 (stereo not given in full) |  | 16.6 µM (inactive) | 16.4 µM (inactive) | > 100 µM (inactive) |  |  | 17.5 µM | 18.2 µM (inactive) | > 100 µM (inactive) | 18.5 µM (inactive) | 16.5 µM (inactive) | > 100 µM (inactive) | 17.3 µM (inactive) | 87.7 µM (inactive) | 20.5 µM (inactive) | 32.2 µM (inactive) |  |  |  | 
8 | CC(C)(C)C1CC[C@H]2c3c([nH]c4ccc(Br)cc34)[C@H]3C(=O)N(c4ccccc4)C(=O)[C@H]3[C@H]2C1 (stereo not given in full) | 13.5 µM (inactive) | > 100 µM (inactive) | 11.3 µM (inactive) | 21.7 µM (inactive) | 8.73 µM (inactive) | 3.22 µM (inactive) |  | 5.52 µM (inactive) | 48.9 µM (inactive) | 11.2 µM (inactive) | 18.2 µM (inactive) | 53.7 µM (inactive) | 8.09 µM (inactive) | 74.8 µM (inactive) | 7.71 µM (inactive) | 41.1 µM (inactive) |  |  |  | 
9 | CCCCCCCCCCCCOP(N)(=O)OCCCCCCCCCCCC | > 100 µM (inactive) | > 100 µM (inactive) | > 100 µM (inactive) | > 100 µM (inactive) | > 100 µM (inactive) | > 100 µM (inactive) | > 100 µM | > 100 µM (inactive) | > 100 µM (inactive) |  | > 100 µM (inactive) |  | > 100 µM (inactive) | > 100 µM (inactive) | > 100 µM (inactive) | > 100 µM (inactive) |  |  |  | 
10 | CCOP(=O)(C/C(O)=C1\C(=O)C(CCCNC(=O)OC(C)(C)C)N(Cc2ccc(OC)c(OC)c2)C1=O)OCC (stereo not given) | > 100 µM (inactive) | > 100 µM (inactive) | > 100 µM (inactive) |  | > 100 µM (inactive) | > 100 µM (inactive) |  | > 100 µM (inactive) | > 100 µM (inactive) | > 100 µM (inactive) | > 100 µM (inactive) |  | > 100 µM (inactive) | > 100 µM (inactive) | > 100 µM (inactive) | > 100 µM (inactive) |  |  |  | 
11 | COC(C)(C)[C@H](O)C(O)CC(C)[C@@H]1CCC23CC12CCC1[C@@]2(C)CCC(OC(C)=O)C(C)(C)C2CC(OC2OC(COC(C)=O)C(O)C(O)C2O)[C@]13C (stereo not given in full) | 2.99 µM (inactive) | 3.76 µM (inactive) | 2.26 µM (inactive) | 9.4 µM (inactive) | 3.48 µM (inactive) |  | 1.86 µM | 2.55 µM (inactive) | 7.23 µM (inactive) | 4.55 µM (inactive) | 2.61 µM (inactive) | 2.92 µM (inactive) | 2.88 µM (inactive) | 6.95 µM (inactive) | 1.35 µM (inactive) | 4.26 µM (inactive) |  |  |  | 
12 | COc1cccc2c1cc([N+](=O)[O-])c1c(C(=O)O)cc3c(c12)OCO3 [ARISTOLOCHIC ACID] | > 74.3 µM (inactive) | 97.7 µM (inactive) | 29.9 µM (inactive) | 49.5 µM (inactive) | 33.8 µM (inactive) | 21.7 µM (inactive) | 18.2 µM | 20 µM (inactive) | 46.9 µM (inactive) | 32 µM (inactive) |  | 27.2 µM (inactive) | 27.7 µM (inactive) | 40.6 µM (inactive) | 23.1 µM (inactive) | 41.9 µM (inactive) | 54.8 µM (inactive) | 46.5 µM (inactive) | 52.8 µM (inactive) | 50.1 µM (inactive)
13 | COC(=O)C1=C(C)NC(C)=C(C(=O)OCCCN2CCC(c3ccccc3)(c3ccccc3)CC2)[C@H]1c1cccc([N+](=O)[O-])c1 [NIGULDIPINE] | 1.58 µM (inactive) | 1.66 µM (inactive) | 1.51 µM (inactive) | 5.24 µM (inactive) | 1.79 µM (inactive) | 2.26 µM (inactive) | 1.94 µM | 1.14 µM (inactive) | 2.91 µM (inactive) | 1.55 µM (inactive) |  | 3.98 µM (inactive) | 1.81 µM (inactive) | 2 µM (inactive) | 1.16 µM (inactive) | 1.88 µM (inactive) | 1.63 µM (inactive) | 1.52 µM (inactive) | 1.69 µM (inactive) | 11.5 µM (inactive)
